Measurements: patent US20250353820A1, “ANTIVIRAL PYRAZOLOPYRIDINONE COMPOUNDS” (Novartis AG, priority 2019, published 2025)
Where two headings read alike, the source gives them in different places.

What was measured:
[1] = test system: Luciferase-encoding HCMV (AD169 strain); assay: microbe, parasite or virus in culture; assay type: cell-based
[2] = biological target: human CMV DNA polymerase UL54 (Human cytomegalovirus (strain AD169) (HHV-5) (Human herpesvirus 5), UniProt P08546); assay: biochemical; details: 100 pM CMV polymerase, 60 minutes at room temperature; read-out: CMV-polymerase Biochemical IC50
[3] = biological target: human HSV DNA polymerase UL30 (Human herpesvirus 1 (strain 17) (HHV-1) (Human herpes simplex virus 1), UniProt P04293); assay: biochemical; details: 625 pM HSV polymerase, 20 minutes at room temperature; read-out: HSV-polymerase Biochemical IC50
[4] = test system: KOS strain of HSV-1 virus; assay: HSV-1 qPCR assay; details: read-out: Cellular activity against HSV-1 (EC50)
VZV Ellen strain = assay: VZV qPCR assay; details: Human alphaherpesvirus 3, MRC5, 48 h, read-out: Cellular activity against VZV (EC50)
[5] = test system: EBV (SNU-719 gastric carcinoma cell line latently infected); assay: EBV qPCR assay; details: human gammaherpesvirus 4, 72 h, read-out: Cellular activity against EBV (EC50)
[6] = test system: HCMV-Rluc virus (AD169 pp28-hRluc rUL131); assay: CMV Luciferase Assay of Compounds 243-262 in ARPE-19 cells; assay type: cell-based; details: Human betaherpesvirus 5, AD169, ARPE-19, 72 h, read-out: CMV-Luc Cellular EC50 in ARPE-19
Protocol: The assay uses a Luciferase-encoding HCMV. Luciferase is expressed under the control of a late viral gene (pp28) promoter in the AD169 strain, so that expression of the reporter is dependent on viral DNA replication. Compounds that affect any stage from viral entry to DNA replication result in a change in luciferase levels.
Compounds 243-262 were tested in a luminescence assay as follows.
ARPE-19 cells were maintained in growth medium (DMEM/F12 Glutamax+10 fetal bovine serum (FBS)+PenStrep) and, before reaching full confluence, were transferred to a centrifuge tube and spun for 5 minutes at 1000 rpm. The cells were resuspended in assay medium (DMEM/F12 Glutamax+2% FBS+PenStrep) and counted. Cell density was adjusted to one million cells per milliliter and infected with HCMV-Rluc virus (AD169 pp28-hRluc rUL131; MOI 0.6) in a 50 ml conical tube for 2 hours while shaking. After dilution of the infectious suspension ten-fold (to 100,000 cells per milliliter), 8000 cells are directly plated in 384-well plates pre-spotted with the compound to be tested. The cells were incubated for 72 hours at 37 degrees Celsius. Cells were then placed at room temperature and allowed to equilibrate for 20 minutes before addition of the Renilla-Glo (Promega) reagent. After a 10-minute incubation at room temperature, luminescence was measured on a microplate reader.

[7] = Human betaherpesvirus 5, AD169, 72 h, read-out: CMV-Luc Cellular EC50, NN-NHDF cells, MOI of 1, 72 hrs
[8] = read-out: CMV-Luc Cellular EC50, NN-NHDF cells, MOI of 1, 72 hrs

CC(N)COCC(C)(C)S(=O)(=O)C1(CN2CCc3c(C(=O)NCc4ccc(C#N)cc4)nn(C)c3C2=O)CC1 (single isomer, unassigned) [Example 100, (R)- or (S)-6-((1-((1-(2-Aminopropoxy)-2-methylpropan-2-yl)sulfonyl)cyclopropyl)methyl)-N-(4-cyanobenzyl)-1-methyl-7-oxo-4,5,6,7-tetrahydro-1H-pyrazolo[3,4-c]pyridine-3-carboxamide]
EC50 [1, 7]: 0.013 µM | IC50 [2]: 0.004 µM | IC50 [3]: 0.06 µM

Cn1nc(C(=O)NCc2ccc(C#N)cc2)c2c1C(=O)N(CC1(S(=O)(=O)C3CCOC3)CC1)CC2 (single isomer, unassigned) [Example 171]
EC50 [1, 8]: 0.104 µM | IC50 [2]: 0.003 µM | IC50 [3]: 0.078 µM

Cn1nc(C(=O)NCc2ccc(C#N)cc2)c2c1C(=O)N(CC1(S(=O)(=O)C(C)(CN)CO)CC1)CC2 (single isomer, unassigned) [Example 185]
EC50 [1, 8]: 0.275 µM | IC50 [2]: 0.004 µM | IC50 [3]: 0.059 µM

Cn1nc(C(=O)NCc2ccc(C#N)cc2)c2c1C(=O)N(CC1(S(=O)(=O)C3(C(O)CO)CC3)CC1)CC2 (single isomer, unassigned) [Example 195, (R)- or (S)—N-(4-Cyanobenzyl)-6-((1-((1-(1,2-dihydroxyethyl)cyclopropyl)sulfonyl)cyclopropyl)methyl)-1-methyl-7-oxo-4,5,6,7-tetrahydro-1H-pyrazolo[3,4-c]pyridine-3-carboxamide]
EC50 [1, 8]: 0.053 µM | IC50 [2]: 0.001 µM

Cn1nc(C(=O)NCc2ccc(Cl)cc2)c2c1C(=O)N(CC1(S(=O)(=O)C3(C(O)CO)CC3)CC1)CC2 (single isomer, unassigned) [Example 196]
EC50 [1, 7]: 0.019 µM | IC50 [2]: 0.001 µM | IC50 [3]: 0.019 µM

Cn1nc(C(=O)NCc2ccc(Cl)cc2)c2c1C(=O)N(CC1(S(=O)(=O)C3(C(O)CO)CC3)CC1)CC2 (single isomer, unassigned) [Example 197]
EC50 [1, 8]: 0.02 µM | IC50 [2]: 0.001 µM

Cn1nc(C(=O)NCc2ccc(C#N)cc2)c2c1C(=O)N(CC1(S(=O)(=O)C(C)(C)C(O)CN)CC1)CC2 (single isomer, unassigned) [Example 199]
EC50 ([4]; Human alphaherpesvirus 1, 24 h): 0.03 µM | EC50 (VZV Ellen strain): 0.127 µM | IC50 [2]: 0.001 µM | IC50 [3]: 0.028 µM | EC50 [5]: 0.011 µM

Cn1nc(C(=O)NCc2ccc(Cl)cc2)c2c1C(=O)N(CC1(S(=O)(=O)C(C)(C)C(O)CN)CC1)CC2 (single isomer, unassigned) [Example 200]
IC50 [2]: 0.001 µM | IC50 [3]: 0.014 µM

Cn1nc(C(=O)NCc2ccc(Cl)cc2)c2c1C(=O)N(CC1(S(=O)(=O)C(C)(C)C(O)CN)CC1)CC2 (single isomer, unassigned) [Example 201]
EC50 ([4]; NN-NHDF cells, MOI of 0.01, 24 hrs, qPCR): 0.018 µM | EC50 [1, 8]: 0.006 µM | EC50 ([1]; read-out: Cellular activity against CMV (EC50), Table 18, CMV): 0.006 µM | IC50 [2]: 0.001 µM | IC50 [3]: 0.015 µM

CNCC(O)C(C)(C)S(=O)(=O)C1(CN2CCc3c(C(=O)NCc4ccc(C#N)cc4)nn(C)c3C2=O)CC1 (single isomer, unassigned) [Example 202]
IC50 [2]: 0.002 µM | IC50 [3]: 0.03 µM

CNCC(O)C(C)(C)S(=O)(=O)C1(CN2CCc3c(C(=O)NCc4ccc(C#N)cc4)nn(C)c3C2=O)CC1 (single isomer, unassigned) [Example 203]
EC50 [1, 8]: 0.019 µM | IC50 [2]: 0.002 µM | IC50 [3]: 0.038 µM

CNCC(O)C(C)(C)S(=O)(=O)C1(CN2CCc3c(C(=O)NCc4ccc(Cl)cc4)nn(C)c3C2=O)CC1 (single isomer, unassigned) [Example 204]
IC50 [2]: 0.003 µM | IC50 [3]: 0.037 µM

CNCC(O)C(C)(C)S(=O)(=O)C1(CN2CCc3c(C(=O)NCc4ccc(Cl)cc4)nn(C)c3C2=O)CC1 (single isomer, unassigned) [Example 205]
EC50 [1, 8]: 0.009 µM | IC50 [2]: 0.002 µM | IC50 [3]: 0.029 µM

CN(C)CC(O)C(C)(C)S(=O)(=O)C1(CN2CCc3c(C(=O)NCc4ccc(Cl)cc4)nn(C)c3C2=O)CC1 (single isomer, unassigned) [Example 206]
IC50 [2]: 0.021 µM | IC50 [3]: 0.074 µM

CN(C)CC(O)C(C)(C)S(=O)(=O)C1(CN2CCc3c(C(=O)NCc4ccc(Cl)cc4)nn(C)c3C2=O)CC1 (single isomer, unassigned) [Example 207]
EC50 [1, 8]: 0.05 µM | IC50 [2]: 0.023 µM | IC50 [3]: 0.088 µM

N#Cc1ccc(CNC(=O)c2n[nH]c3c2CCN(CC2(S(=O)(=O)C4CC4)CC2)C3=O)cc1 [Example 45, N-(4-Cyanobenzyl)-6-((1-(cyclopropylsulfonyl)cyclopropyl)methyl)-7-oxo-4,5,6,7-tetrahydro-1H-pyrazolo[3,4-c]pyridine-3-carboxamide]
EC50 [1, 7]: 0.146 µM | IC50 [2]: 0.006 µM | IC50 [3]: 0.169 µM

Cn1nc(C(=O)NCc2ccc(C#N)cc2)c2c1C(=O)N(CC1(S(=O)(=O)C(C)(C)COCCO)CC1)CC2 [Example 87, N-(4-Cyanobenzyl)-6-((1-((1-(2-hydroxyethoxy)-2-methylpropan-2-yl)sulfonyl)cyclopropyl)methyl)-1-methyl-7-oxo-4,5,6,7-tetrahydro-1H-pyrazolo[3,4-c]pyridine-3-carboxamide]
EC50 [1, 7]: 0.044 µM | IC50 [2]: 0.001 µM | IC50 [3]: 0.032 µM

CC(C)[C@@H](NS(=O)(=O)C1(CN2CCc3c(C(=O)NCc4ccc(Cl)cc4)nn(C)c3C2=O)CC1)C(=O)O [Example 215, ((1-((3-((4-Chlorobenzyl)carbamoyl)-1-methyl-7-oxo-1,4,5,7-tetrahydro-6H-pyrazolo[3,4-c]pyridin-6-yl)methyl)cyclopropyl)sulfonyl)-D-valine]
EC50 ([1]; NN-NHDF cells, MOI of 1, 72 hrs, read-out: CMV-Luc Cellular EC50): 1.9 µM | IC50 [2]: 0.001 µM | IC50 [3]: 0.028 µM

Cn1nc(C(=O)NCc2ccc(C#N)cc2)c2c1C(=O)N(CC1(S(=O)(=O)C(C)(C)C(O)CO)CC1)CC2 (centres unmarked) [Example 252, N-(4-cyanobenzyl)-6-((1-((3,4-dihydroxy-2-methylbutan-2-yl)sulfonyl)cyclopropyl)methyl)-1-methyl-7-oxo-4,5,6,7-tetrahydro-1H-pyrazolo[3,4-c]pyridine-3-carboxamide]
EC50 [6]: 0.0219 µM
